These results are taken from US20080269131A1, “Inhibitors of Akt Activity” (SMITHKLINE BEECHAM CORPORATION, priority 2005, published 2008).

Data set [1] has as its system BT474 (human breast carcinoma). Description: Methylene Blue Growth Inhibition assay, BT474. Type of data set: cell-based. The following applies: BT-474, 72 h, BT474, 3 days. The method, then:
(§1) Cellular Assays: Methylene Blue Growth Inhibition assay
(§2) Tumor cell lines used in this assay were BT474 (human breast carcinoma) and LNCaP (lymph node metastasis of prostate cancer). HFF (normal human foreskin fibroblast) was also included. All cell lines were cultured in RPMI 1640 media (Invitrogen Corporation 22400-071) containing 10% Fetal Bovine Serum (FBS) at 37° C. in a humidified 5% CO2 incubator. Cells were harvested using trypsin/EDTA, counted using a hemacytometer and plated in 96-well tissue culture plates (Costar 35-3075), 100 uL per well, at the following densities: BT474 15,000 cells/well, LNCaP 5,000 cells/well and HFF 5,000 cells/well. 10 mM stocks of compounds in DMSO were serially diluted in DMSO through nine 3-fold dilutions in 96-well plates (Costar Corning 3363), and stored at −80 C. The next day, compound dilutions were thawed and 4 uL of each transferred to 662 uL RPMI 1640+100 ug/mL gentamicin, resulting in twice the final required test concentrations. 100 uL of compounds diluted in RPMI 1640 were added to all cell lines. The final concentration of DMSO in all wells, including controls, was 0.3%. Cells were incubated at 37 C, 5% CO2 for 3 days. Medium was removed by aspiration. Cell biomass was estimated by staining cells with 80 uL methylene blue (Sigma M9140, 0.5% in 50:50 ethanol:water), and incubating at room temperature for 1 hour. Stain was aspirated and the plates rinsed by immersion in water, then air-dried. Stain was released from cells by adding 100 uL of solubilizing solution (1% N-lauroyl sarcosine, sodium salt, Sigma L5125, in PBS) and incubating at room temperature for at least 30 minutes. Plates were shaken and the optical density at 620 nm was measured on a microplate reader. Percent inhibition of cell growth was calculated relative to vehicle-treated control wells. Concentration of compound that inhibits 50% of cell growth (IC50) was interpolated using non-linear regression (Levenberg-Marquadt) and the equation, y=Vmax*(1−(x̂n/K̂n+x̂n)))+Y2. [Ref: Mager, M. E. (1972) Data Analysis in Biochemistry and Biophysics. New York: Academic Press]

Data set [2] concerns LNCaP (lymph node metastasis of prostate cancer). Description: Methylene Blue Growth Inhibition assay, LNCaP. Type of data set: cell-based. The note with it: Homo sapiens, 72 h, 3 days. The method, then: as §1, §2
Data set [3] concerns HFF (normal human foreskin fibroblast). The data set can be described thus: Methylene Blue Growth Inhibition assay, HFF. Type of data set: cell-based. The following applies: 72 h, HFF normal cells, 3 days. The method, then:
as §1, §2

Data set [4] can be described thus: Solubility in 50 mM phosphate buffer at pH 7.4. The following applies: for solubility: 50 mM phosphate buffer, pH 7.4, aqueous buffer; for Solubility (statement in words): suitability for IV dosage forms, solubility in water. Type of data set: physicochemical.
The target in another data set is T1, FL AKT2 (Homo sapiens, UniProt P31751).
T1 construct: 0.008 uM, FL AKT2 in the above full-length AKT enzyme assay
The data set can be described thus: Full-length AKT enzyme assay (substrate phosphorylation, SPA). The note with it: 4 uM ATP. Type of data set: biochemical.

A further data set addresses FL AKT1 (Homo sapiens, UniProt P31749). Described as above. Type of data set: biochemical. The following applies: 4 uM ATP.

Values after ≈ are worked out from the molar mass of the structure shown. Counter-ions that a name gives are not always drawn.

Sequence of FL AKT1 (P31749 whole entry): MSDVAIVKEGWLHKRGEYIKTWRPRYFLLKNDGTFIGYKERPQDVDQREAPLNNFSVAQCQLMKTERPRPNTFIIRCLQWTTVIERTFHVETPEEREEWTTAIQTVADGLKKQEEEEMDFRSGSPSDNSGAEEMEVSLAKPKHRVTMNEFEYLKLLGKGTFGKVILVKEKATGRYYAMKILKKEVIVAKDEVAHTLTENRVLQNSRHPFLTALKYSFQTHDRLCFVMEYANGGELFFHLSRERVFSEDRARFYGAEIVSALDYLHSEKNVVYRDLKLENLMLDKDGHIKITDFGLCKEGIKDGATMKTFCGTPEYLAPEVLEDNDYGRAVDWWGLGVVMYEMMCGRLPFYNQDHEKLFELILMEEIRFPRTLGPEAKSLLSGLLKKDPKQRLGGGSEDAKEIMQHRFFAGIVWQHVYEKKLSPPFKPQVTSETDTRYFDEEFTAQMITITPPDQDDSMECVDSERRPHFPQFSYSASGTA
T1 sequence (P31751 whole entry): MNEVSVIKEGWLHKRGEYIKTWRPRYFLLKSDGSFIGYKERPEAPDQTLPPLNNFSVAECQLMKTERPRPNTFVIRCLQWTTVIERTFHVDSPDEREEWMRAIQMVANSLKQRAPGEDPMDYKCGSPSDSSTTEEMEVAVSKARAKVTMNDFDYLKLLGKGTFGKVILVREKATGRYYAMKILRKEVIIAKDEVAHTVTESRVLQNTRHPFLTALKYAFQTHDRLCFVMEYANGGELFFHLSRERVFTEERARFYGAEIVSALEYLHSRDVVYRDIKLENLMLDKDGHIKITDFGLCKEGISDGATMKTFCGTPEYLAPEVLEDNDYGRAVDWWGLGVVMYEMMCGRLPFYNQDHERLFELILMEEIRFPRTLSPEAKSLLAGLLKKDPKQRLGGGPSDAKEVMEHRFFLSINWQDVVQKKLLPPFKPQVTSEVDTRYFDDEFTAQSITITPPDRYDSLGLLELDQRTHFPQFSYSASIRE

As a reminder, the IC50 is the concentration that gives 50% inhibition. In the case of `CCn1c(-c2nonc2N)nc2c(-c3ccccc3)ncc(OCCCN3CCOCC3)c21` [Compound R, 4-(1-ethyl-7-{[3-(4-morpholinyl)propyl]oxy}-4-phenyl-1H-imidazo[4,5-c]pyridin-2-yl)-1,2,5-oxadiazol-3-amine trifluoroacetate], the IC50 was determined as 17.7 µM in data set [1], 1.42 µM in data set [2] and 19.9 µM in data set [3].

With `CCn1c(-c2nonc2N)nc2c(-c3ccccc3)ncc(OCC(O)CN3CCOCC3)c21` (stereo not shown) [Compound S, 1-{[2-(4-amino-1,2,5-oxadiazol-3-yl)-1-ethyl-4-phenyl-1H-imidazo[4,5-c]pyridin-7-yl]oxy}-3-(4-morpholinyl)-2-propanol trifluoroacetate], the IC50 is over 30 µM in data set [1], 7.77 µM in data set [2] and over 30 µM in data set [3].

For `CCn1c(-c2nonc2N)nc2c(-c3ccccc3)ncc(OCCN3CCOCC3)c21` [Compound T, 4-(1-ethyl-7-{[2-(4-morpholinyl)ethyl]oxy}-4-phenyl-1H-imidazo[4,5-c]pyridin-2-yl)-1,2,5-oxadiazol-3-amine trifluoroacetate], the half-maximal inhibitory concentration (IC50) is over 30 µM in data set [1], over 30 µM in data set [2] and 18.9 µM in data set [3].

A word on the solubility: it is how much of the substance goes into solution per volume. Turning to `CCn1c(-c2nonc2N)nc2cncc(OC3CCNCC3)c21.O=C(O)C(F)(F)F` [Compound U, 4-[1-ethyl-7-(piperidin-4-yloxy)-1H-imidazo[4,5-c]pyridine-2-yl]-furazan-3-ylamine trifluoroacetate], the IC50 in data set [1] came out at 4.51 µM; in data set [3] it was 6.47 µM. In data set [4], the solubility was determined as 200 µM.

For the molecule `CCn1c(-c2nonc2N)nc2c(-c3ccccc3)ncc(OCC3CCCNC3)c21.O=C(O)C(F)(F)F` (stereo not shown) [Compound V, 4-{1-ethyl-4-phenyl-7-[(3-piperidinylmethyl)oxy]-1H-imidazo-[4,5-c]pyridin-2-yl}-1,2,5-oxadiazol-3-amine trifluoroacetate], the IC50 came to 1.87 µM in data set [1], 1.64 µM in data set [2] and 0.57 µM in data set [3]. The same molecule registered a solubility in data set [4] of 9 µM.

As to `CCn1c(-c2nonc2N)nc2c(C#CC(C)(C)O)ncc(OCCCCN)c21.O=C(O)C(F)(F)F` [Compound W, 4-[7-[(4-aminobutyl)oxy]-2-(4-amino-1,2,5-oxadiazol-3-yl)-1-ethyl-1H-imidazo[4,5-c]pyridin-4-yl}-2-methyl-3-butyn-2-ol trifluoroacetate], the half-maximal inhibitory concentration (IC50) in data set [1] amounted to 8.21 µM; in data set [2], 0.836 µM; in data set [3] it was 22.1 µM. Also, the solubility in data set [4] stood at 210 µM.

`CCn1c(-c2nonc2N)nc2c(C#CC(C)(C)O)ncc(OCCCN)c21.O=C(O)C(F)(F)F` [Compound X, 4-{2-(4-amino-1,2,5-oxadiazol-3-yl)-7-[(3-aminopropyl)oxy]-1-ethyl-1H-imidazo[4,5-c]pyridin-4-yl}-2-methyl-3-butyn-2-ol trifluoroacetate]: the 50% inhibitory concentration (IC50) in data set [1] is 0.241 µM; in data set [2], 0.258 µM; in data set [3] it was 18.1 µM. Further, the solubility in data set [4] was 173 µM.

As for `CCn1c(-c2nonc2N)nc2c(C#CC(C)(C)O)ncc(OCC3CCNCC3)c21.O=C(O)C(F)(F)F` [Compound Y, 4-{2-(4-amino-1,2,5-oxadiazol-3-yl)-1-ethyl-7-[(4-piperidinylmethyl)oxy]-1H-imidazo[4,5-c]pyridin-4-yl}-2-methyl-3-butyn-2-ol trifluoroacetate], the IC50 in data set [1] is 2.59 µM; in data set [2], 0.217 µM; in data set [3] it was over 30 µM. In data set [4], the solubility was 159 µM.

With `CCn1c(-c2nonc2N)nc2c(C#CC(C)(C)O)ncc(OCCCNCCc3ccc(OC)cc3)c21` [Compound Z, 4-(2-(4-amino-1,2,5-oxadiazol-3-yl)-1-ethyl-7-{[3-({2-[4-(methyloxy)phenyl]ethyl}amino)propyl]oxy}-1H-imidazo[4,5-c]pyridin-4-yl)-2-methyl-3-butyn-2-ol], the results for the IC50 in data set [1], in data set [2] and in data set [3] were 0.266 µM, 0.048 µM and 5.51 µM, respectively. Also, in data set [4], the solubility stood at 37 µM (≈ 19.2 µg/mL).

For `CCn1c(-c2nonc2N)nc2c(C#CC(C)(C)O)ncc(OCC[C@@H]3CCCN3)c21` [Example 1, 4-[2-(4-amino-1,2,5-oxadiazol-3-yl)-1-ethyl-7-({2-[(2S)-2-pyrrolidinyl]ethyl}oxy)-1H-imidazo[4,5-c]pyridin-4-yl]-2-methyl-3-butyn-2-ol], the half-inhibitory concentration (IC50) in data set [1] was 0.176 µM; on FL AKT2, 0.008 µM; in data set [2], 0.052 µM; in data set [3] it was 12.6 µM; against FL AKT1 it was 0.002 µM. The solubility in data set [4] worked out at 222 µM (≈ 94.5 µg/mL). Also, the “Solubility (statement in words)” value in data set [4] is given as “suitable for formulation into dosage forms for IV administration”.

`CCn1c(-c2nonc2N)nc2c(C#CC(C)(C)O)ncc(OCC[C@@H]3CCCCN3)c21` [Example 2, 4-[2-(4-amino-1,2,5-oxadiazol-3-yl)-1-ethyl-7-({2-[(2S)-2-Piperidinyl]ethyl}oxy)-1H-imidazo[4,5-c]pyridin-4-yl]-2-methyl-3-butyn-2-ol]: the IC50 in data set [1] came out at 0.255 µM; in data set [2] it was 0.065 µM; in data set [3], 14.2 µM. In data set [4], this molecule yielded a solubility of 200 µM (≈ 87.9 µg/mL). In addition, the “Solubility (statement in words)” value in data set [4] is on record as “suitable for formulation into dosage forms for IV administration”.

With `CCn1c(-c2nonc2N)nc2c(C#CC(C)(C)O)ncc(OCCC3CSCCN3)c21` (stereo not shown) [Example 3, 4-(2-(4-amino-1,2,5-oxadiazol-3-yl)-1-ethyl-7-{[2-(3-thiomorpholinyl)ethyl]oxy}-1H-imidazo[4,5-c]pyridin-4-yl)-2-methyl-3-butyn-2-ol], the concentration for half-maximal inhibition (IC50) was 0.026 µM in data set [1], 0.007 µM in data set [2] and 3.59 µM in data set [3]. The solubility in data set [4] worked out at 7 µM (≈ 3.2 µg/mL). For the same molecule, the “Solubility (statement in words)” value in data set [4] is “suitable for formulation into dosage forms for IV administration”.
